Columns and labels:
[1] = methyl methacrylate at 20° C.
[2] = acrylic acid at 20° C.

Compound: Oc1ccc(O)cc1 [crystalline hydroquinone, hydroquinone]
- dissolution time in methyl methacrylate [1]: 3 min
- dissolution time in acrylic acid [2]: 10 min

From patent publication US7235299B2, “Beads of a phenolic compound and a method of obtaining same” (Rhodia Chimie, priority 2002, dated 2007)
